Laboratory results from patent US11787847B2, “Method of identifying malodor modulating compounds” (FIRMENICH SA, priority 2017, dated 2023).

Columns and labels:
mouse receptor Olfr169 = biological target: T1, mouse receptor Olfr169 (Mus musculus, UniProt Q7TS53); experiment: cell-based dose-response, cAMP increase by HTRF, HEK293T cells (endogenous RTP1 activated) co-transfected with human Golf, Lucy-FLAG-Rho tagged receptor; details: FIG. 5, Example 5, SEQ ID NO: 10
T1 construct: cAMP HTRF
T1 sequence (Q7TS53 1-313): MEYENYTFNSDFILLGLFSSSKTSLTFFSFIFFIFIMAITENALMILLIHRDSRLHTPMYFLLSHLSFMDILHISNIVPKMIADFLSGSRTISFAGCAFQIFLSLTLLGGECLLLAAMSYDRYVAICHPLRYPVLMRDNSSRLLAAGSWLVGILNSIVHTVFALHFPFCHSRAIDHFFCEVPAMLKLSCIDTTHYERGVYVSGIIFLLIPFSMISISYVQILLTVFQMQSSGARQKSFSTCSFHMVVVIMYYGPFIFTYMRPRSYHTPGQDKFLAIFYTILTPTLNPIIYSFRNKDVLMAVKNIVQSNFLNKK
Description: (§1) Functional dose-response experiments were performed to evaluate the level of DMTS activity of the modified cell line expressing individual putative DMTS receptors. Using a cell-based assay, mouse receptor Olfr1193, Olfr1093, Olfr1097, Olrf166, Olfr169, Olfr738 and Olfr742, and human receptor OR4S2 and OR52N5 were tested in an HEK293T cell line wherein the endogenous RTP1 gene has been activated and the odorant receptor chaperone protein was expressed (described in WO2016/201153). The mouse receptor genes were tagged with a Lucy-FLAG®-Rho tag combination and the human receptors were tagged with a Rho-FLAG® tag combination resulting in a tag:receptor fusion protein for the cell based assay. Receptor genes were co-transfected with the canonical olfactory human G-protein alpha subunit Golf gene and were exposed to increasing concentrations of the malodor odorant. Co-expression of the human Golf activates the Gs transduction pathway that leads to an internal cAMP increase upon binding to the appropriate ligand. Odorant-induced activity was detected by measuring the cAMP increase in the cytosol using an Homogeneous Time Resolved Fluorescence (HTRF) based kit (CisBio, cAMP dynamic 2 kit, cat. 62AM4PEJ). […] The activity levels are reported by the potency of the DMTS induced-response for each receptor as a measure of the EC50 value (the effective concentration at which the receptor responds at its half-maximal activation efficacy level for a given compound).
(§2) Functional dose-response experiments were performed to confirm the DMTS activity on the DMTS receptors identified in Example 2 and to further characterize their response to DMDS. Using the same cell-based assay described in Example 2, mouse receptors Olfr1193, Olfr1093, Olfr1097, Olfr166, Olfr169, Olfr738, Olfr742 and of human odorant receptor OR4S2 were tested with increasing concentration of DMTS, DMDS or butyric acid (control). […] A weak response for OR4S2 and Olfr169 to butyric acid was visible but was too weak to consider butyric acid as a representative ligand for these receptors. The activity levels are reported by the potency of DMTS or DMDS induced-response for each receptor as a measure of the EC50 value, EC50DMTS and EC50DMDS respectively. […] Competitive antagonists at the malodor binding site of these receptors have the potential to reduce the unpleasant perception of both DMTS and DMDS.

mouse receptor Olfr742 = biological target: T2, mouse receptor Olfr742 (Mus musculus, UniProt A2RTP5); experiment: as above; details: FIG. 5, Example 5, SEQ ID NO: 14
T2 construct: cAMP HTRF
T2 sequence (A2RTP5 1-311): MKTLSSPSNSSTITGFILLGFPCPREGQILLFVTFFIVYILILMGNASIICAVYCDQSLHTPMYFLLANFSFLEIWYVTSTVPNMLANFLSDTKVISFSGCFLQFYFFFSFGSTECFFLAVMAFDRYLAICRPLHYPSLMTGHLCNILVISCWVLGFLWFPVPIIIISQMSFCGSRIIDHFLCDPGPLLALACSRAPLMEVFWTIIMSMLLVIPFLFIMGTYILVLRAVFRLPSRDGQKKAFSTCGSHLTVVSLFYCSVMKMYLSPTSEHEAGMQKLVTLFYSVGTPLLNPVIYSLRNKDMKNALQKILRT
Description: as §1, §2

mouse receptor Olfr166 = biological target: T3, mouse receptor Olfr166 (Mus musculus, UniProt Q0VEL6); experiment: as above; details: FIG. 5, Example 5, SEQ ID NO: 8
T3 construct: cAMP HTRF
T3 sequence (Q0VEL6 1-312): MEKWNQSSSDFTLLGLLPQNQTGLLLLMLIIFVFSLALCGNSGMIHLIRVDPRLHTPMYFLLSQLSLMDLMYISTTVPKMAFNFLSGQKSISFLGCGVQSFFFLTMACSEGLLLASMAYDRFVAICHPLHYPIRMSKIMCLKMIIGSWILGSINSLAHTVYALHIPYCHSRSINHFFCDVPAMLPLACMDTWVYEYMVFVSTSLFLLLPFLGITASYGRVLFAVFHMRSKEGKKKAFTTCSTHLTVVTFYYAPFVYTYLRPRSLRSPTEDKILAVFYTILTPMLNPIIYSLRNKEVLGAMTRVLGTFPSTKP
Description: as §1, §2

mouse receptor Olfr1093 = biological target: T4, mouse receptor Olfr1093 (Mus musculus, UniProt B2RR12); experiment: as above; details: FIG. 5, Example 5, SEQ ID NO: 4
T4 construct: cAMP HTRF
T4 sequence (B2RR12 1-322): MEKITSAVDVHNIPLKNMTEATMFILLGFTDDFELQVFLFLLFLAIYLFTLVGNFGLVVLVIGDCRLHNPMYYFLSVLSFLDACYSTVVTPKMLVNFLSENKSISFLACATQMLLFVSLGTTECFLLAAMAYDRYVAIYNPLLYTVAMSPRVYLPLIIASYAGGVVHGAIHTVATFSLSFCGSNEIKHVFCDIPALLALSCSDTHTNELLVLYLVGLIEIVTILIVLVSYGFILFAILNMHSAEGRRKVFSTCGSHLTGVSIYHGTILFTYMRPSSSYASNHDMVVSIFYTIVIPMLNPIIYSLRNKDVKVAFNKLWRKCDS
Description: as §1, §2

mouse receptor Olfr1097 = biological target: T5, mouse receptor Olfr1097 (Mus musculus, UniProt Q8VGA2); experiment: as above; details: FIG. 5, Example 5, SEQ ID NO: 6
T5 construct: cAMP HTRF
T5 sequence (Q8VGA2 1-315): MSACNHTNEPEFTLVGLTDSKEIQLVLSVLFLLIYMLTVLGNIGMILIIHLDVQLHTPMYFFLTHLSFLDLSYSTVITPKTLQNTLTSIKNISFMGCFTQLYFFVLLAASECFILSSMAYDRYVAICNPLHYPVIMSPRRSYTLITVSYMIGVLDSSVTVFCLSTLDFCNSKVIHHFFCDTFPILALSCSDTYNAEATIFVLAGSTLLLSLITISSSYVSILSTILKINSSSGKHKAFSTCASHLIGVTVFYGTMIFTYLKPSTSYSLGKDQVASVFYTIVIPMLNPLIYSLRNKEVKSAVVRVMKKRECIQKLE
Description: as §1, §2

mouse receptor Olfr1193 = biological target: T6, mouse receptor Olfr1193 (Mus musculus, UniProt A2AV13); experiment: as above; details: FIG. 5, Example 5, SEQ ID NO: 2
T6 construct: cAMP HTRF
T6 sequence (A2AV13 1-318): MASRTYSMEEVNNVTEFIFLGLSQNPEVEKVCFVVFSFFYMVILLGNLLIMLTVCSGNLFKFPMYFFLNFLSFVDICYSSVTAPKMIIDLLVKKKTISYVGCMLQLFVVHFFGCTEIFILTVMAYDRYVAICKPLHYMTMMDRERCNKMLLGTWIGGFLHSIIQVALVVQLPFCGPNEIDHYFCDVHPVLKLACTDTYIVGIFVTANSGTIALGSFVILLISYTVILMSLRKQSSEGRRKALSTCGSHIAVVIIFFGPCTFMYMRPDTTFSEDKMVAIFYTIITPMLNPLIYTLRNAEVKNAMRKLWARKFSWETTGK
Description: as §1, §2

mouse receptor Olfr738 = biological target: T7, mouse receptor Olfr738 (Mus musculus, UniProt L7N1X7); experiment: as above; details: FIG. 5, Example 5, SEQ ID NO: 12
T7 construct: cAMP HTRF
T7 sequence (L7N1X7 1-311): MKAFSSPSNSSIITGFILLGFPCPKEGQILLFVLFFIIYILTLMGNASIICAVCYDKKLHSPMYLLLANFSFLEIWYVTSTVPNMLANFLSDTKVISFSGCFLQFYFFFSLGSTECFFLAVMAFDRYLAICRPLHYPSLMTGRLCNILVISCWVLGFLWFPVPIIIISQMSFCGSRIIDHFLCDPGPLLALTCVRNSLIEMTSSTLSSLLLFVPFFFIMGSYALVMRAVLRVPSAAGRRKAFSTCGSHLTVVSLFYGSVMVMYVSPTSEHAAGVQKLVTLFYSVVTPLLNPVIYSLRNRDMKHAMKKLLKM
Description: as §1, §2

[1] = test system: cells that do not express the odorant receptors (HEK293T); experiment: Mock transfection control experiment (Example 5); type: cell-based
Description: (§3) Functional dose-response experiments were performed to evaluate the level of DMTS activity of the modified cell line expressing individual putative DMTS receptors. Using a cell-based assay, mouse receptor Olfr1193, Olfr1093, Olfr1097, Olrf166, Olfr169, Olfr738 and Olfr742, and human receptor OR4S2 and OR52N5 were tested in an HEK293T cell line wherein the endogenous RTP1 gene has been activated and the odorant receptor chaperone protein was expressed (described in WO2016/201153). The mouse receptor genes were tagged with a Lucy-FLAG®-Rho tag combination and the human receptors were tagged with a Rho-FLAG® tag combination resulting in a tag:receptor fusion protein for the cell based assay. Receptor genes were co-transfected with the canonical olfactory human G-protein alpha subunit Golf gene and were exposed to increasing concentrations of the malodor odorant. Co-expression of the human Golf activates the Gs transduction pathway that leads to an internal cAMP increase upon binding to the appropriate ligand. Odorant-induced activity was detected by measuring the cAMP increase in the cytosol using an Homogeneous Time Resolved Fluorescence (HTRF) based kit (CisBio, cAMP dynamic 2 kit, cat. 62AM4PEJ). […]

[2] = test system: mouse receptors Olfr1193, Olfr1093, Olfr1097, Olfr166, Olfr169, Olfr738, Olfr742 and human odorant receptor OR4S2; experiment: cAMP HTRF dose-response assay, DMTS/DMDS response profiles (Example 5); type: cell-based; details: increasing concentration of compound; relative to butyric acid control
Description: as §3

Olfr169 = experiment: cAMP HTRF dose-response assay (Example 5), Olfr169; type: cell-based, mouse; details: increasing concentration
Description: as §3

OR4S2 = biological target: T8, OR4S2 (Homo sapiens, UniProt Q8NH73); experiment: cAMP HTRF dose-response assay (Example 5), OR4S2; type: cell-based; parameters: expressed in transfected cells; details: increasing concentration
T8 sequence (Q8NH73 1-311): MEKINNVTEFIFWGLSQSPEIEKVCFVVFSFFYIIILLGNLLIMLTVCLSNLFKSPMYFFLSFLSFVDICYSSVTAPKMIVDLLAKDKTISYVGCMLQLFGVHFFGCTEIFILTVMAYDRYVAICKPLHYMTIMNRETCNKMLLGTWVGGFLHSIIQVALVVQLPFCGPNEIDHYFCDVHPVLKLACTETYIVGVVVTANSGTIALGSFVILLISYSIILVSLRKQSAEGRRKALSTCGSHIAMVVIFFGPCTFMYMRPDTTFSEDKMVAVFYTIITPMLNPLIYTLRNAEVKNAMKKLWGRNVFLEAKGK
Description: as §3

[3] = test system: mouse receptor Olfr1193, Olfr1093, Olfr1097, Olrf166, Olfr169, Olfr738 and Olfr742, and human receptor OR4S2 and OR52N5; experiment: cAMP HTRF dose-response assay in HEK293T cells expressing odorant receptors (Example 2); type: cell-based; details: increasing concentrations of odorant, receptors co-transfected with human Golf

`CSSC` [DMDS, dimethyl disulfide] was tested, and the EC50 (mouse receptor Olfr169) was 102 µM, the EC50 (mouse receptor Olfr742) was 69 µM and the EC50 (mouse receptor Olfr166) was 12 µM. It also gave an EC50 (mouse receptor Olfr1093) of 458 µM, an EC50 (mouse receptor Olfr1097) of 87 µM and an EC50 (mouse receptor Olfr1193) of 40 µM. The EC50 (mouse receptor Olfr738) was 355 µM, the “activity upon exposure in mock transfected cells” value [1] was “did not show activity” and the “receptor activity (cAMP increase)” value [2] was “strong dose-dependent increase of the receptor activity”.

`CCCC(=O)O` [butyric acid] was tested, and the “response to butyric acid (cAMP)” value (Olfr169) was “weak response”, the “response to butyric acid (cAMP)” value (OR4S2) was “weak response” and the “receptor activity (cAMP increase in the cytosol)” value [3] was “not”.
